Measured values: patent EP4755881A1 (Wuhan Createrna Science and Technology Co., Ltd., priority 2023, dated 2025)
Where two headings read alike, the source gives them in different places.

Test: Pharmacokinetic study in rats (oral gavage and tail vein injection, plasma LC-MS/MS)
Type: in vivo
Settings: rat; for Cmax: read-out: Cmax
Description: Male SPF-grade SD rats (Beijing Vital River Laboratory Animal Technology Co., Ltd.) with a body weight range of 200 to 250 g were used. After acclimatization, the rats were administered a clear solution of the compound of the present disclosure via oral gavage (Po, fasted overnight before administration with free access to water, food returned 4 hours after administration) and tail vein injection (Iv, free access to food and water throughout the administration). Blood samples were collected from the orbital venous plexus/jugular vein of rats at specified time points after administration (blood collection time points for the PO group: 0.167, 0.5, 1, 2, 4, 6, 8, and 24 h; for the IV group: 0.033, 0.167, 1, 2, 4, 6, 8, and 24 h). The concentration of compounds in plasma was detected by LC-MS/MS (AB SCIEX Qtrap4500). Data were analyzed using WinNonlin (version 5.2.1 Pharsight, Mountain View, CA) with a non-compartmental model to obtain PK parameters (including Cmax, C0, Tmax, AUClast, AUCinf, T1/2, etc.).
Table 3: Results of in vivo pharmacokinetic studies of compounds of the present disclosure in rats
The vehicle for the Po group compound was 5% DMSO + 5% ethanol + 60% PEG400 + 30% normal saline; the vehicle for the Iv group compound was 10% ethanol + 20% pure water + 70% PEG400 solution.

SMILES	AUC(0-t) (SD rats, Iv, 1 mg/kg)	half-life (SD rats, Iv, 1 mg/kg)	Cmax (SD rats, Iv, 1 mg/kg)	AUC(0-t) (SD rats, Po, 1 mg/kg)	half-life (SD rats, Po, 1 mg/kg)	Cmax (SD rats, Po, 1 mg/kg)	AUC(0-t) (in vivo, SD rats, Iv, 1 mg/kg)	Cmax (in vivo, SD rats, Iv, 1 mg/kg)	half-life (in vivo, iv, 1 mg/kg, SD rats)	further results
Cc1nc(-c2nnn(C)c2NC(=O)OC(C)CC(C)(F)F)ccc1C#CC1(CC(=O)O)CC1 (racemic) [compound 311]	5000 to 10000 ng·h/mL	9.33 h	800 to 5000 ng/mL	3000 to 5000 ng·h/mL	8.49 h	200 to 800 ng/mL				
Cc1nc(-c2nnn(C)c2COC(=O)N(C)CC2CCC2)ccc1C#CC1CC1C(=O)O (racemic) [compound 361]	1200 to 3000 ng·h/mL	3.03 h	800 to 5000 ng/mL	1200 to 3000 ng·h/mL	2.53 h	200 to 800 ng/mL				
CCC(F)(F)[C@@H](C)OC(=O)Nc1c(-c2ccc(C#CC3(CC(=O)O)CC(OC)C3)c(C)n2)nnn1C (stereo partly drawn) [compound 279]	5000 to 10000 ng·h/mL	5.82 h	5000 to 8000 ng/mL	5000 to 10000 ng·h/mL	6.39 h	800 to 5000 ng/mL				
Cc1nc(-c2nnn(C)c2NC(=O)OC(C)CC(C)(F)F)ccc1C#CC1CC1C(=O)O (stereo not drawn) [compound 291]							5000 to 10000 ng·h/mL	800 to 5000 ng/mL	4.68 h	AUC(0-t) (in vivo, SD rats, Po, 1 mg/kg): 3000 to 5000 ng·h/mL; Cmax (in vivo, SD rats, Po, 1 mg/kg): 800 to 5000 ng/mL; half-life (in vivo, po, 1 mg/kg, SD rats): 5.15 h
Cc1nc(-c2nnn(C)c2NC(=O)OC(C)C23CC(F)(C2)C3)ccc1C#CC1(CC(=O)O)CC1 (stereo not drawn) [compound 285]										AUC(0-t) (male, SD rats, Iv, 1 mg/kg): 5000 to 10000 ng·h/mL; half-life (male, SD rats, Iv, 1 mg/kg): 9.86 h; Cmax (male, SD rats, Iv, 1 mg/kg): 800 to 5000 ng/mL; AUC(0-t) (male, SD rats, Po, 1 mg/kg): 3000 to 5000 ng·h/mL; half-life (male, SD rats, Po, 1 mg/kg): 6.12 h; Cmax (male, SD rats, Po, 1 mg/kg): 200 to 800 ng/mL
CCCc1ccnc(NCc2c(-c3ccc(C#CC4(CC(=O)O)CC4)c(C)n3)nnn2C)n1 [compound 365]	1200 to 3000 ng·h/mL	7.21 h	800 to 5000 ng/mL	1200 to 3000 ng·h/mL	5.98 h	200 to 800 ng/mL				
Cc1nc(-c2nnn(C)c2NC(=O)O[C@H](C)CCC(C)(F)F)ccc1C#CC1(CC(=O)O)CC1 [compound 314]							3000 to 5000 ng·h/mL	800 to 5000 ng/mL	8.42 h	AUC(0-t) (in vivo, SD rats, Po, 1 mg/kg): 5000 to 10000 ng·h/mL; Cmax (in vivo, SD rats, Po, 1 mg/kg): 200 to 800 ng/mL; half-life (in vivo, po, 1 mg/kg, SD rats): 6.41 h
Cc1nc(-c2nnn(C)c2NC(=O)O[C@H](C)CC(C)(C)F)ccc1C#C[C@@H]1CC[C@H]1C(=O)O [compound 306]							3000 to 5000 ng·h/mL	800 to 5000 ng/mL	7.66 h	AUC(0-t) (in vivo, SD rats, Po, 1 mg/kg): 3000 to 5000 ng·h/mL; Cmax (in vivo, SD rats, Po, 1 mg/kg): 200 to 800 ng/mL; half-life (in vivo, po, 1 mg/kg, SD rats): 7.2 h
CCCN(C)C(=O)OCc1c(-c2ccc(C#C[C@@H]3CCC[C@H]3C(=O)O)c(C)n2)nnn1C [compound 355]										half-life (male, SD, iv, 1 mg/kg): 6.65 h; half-life (male, SD, po, 1 mg/kg): 5.53 h; AUC(0-t) (male, SD rats, Iv, 1 mg/kg): 1200 to 3000 ng·h/mL; Cmax (male, SD rats, Iv, 1 mg/kg): 800 to 5000 ng/mL; AUC(0-t) (male, SD rats, Po, 1 mg/kg): 1200 to 3000 ng·h/mL; Cmax (male, SD rats, Po, 1 mg/kg): 200 to 800 ng/mL
Cc1nc(-c2nnn(C)c2COC(=O)N(C)CCC(C)(F)F)ccc1C#C[C@@H]1CCC[C@H]1C(=O)O (racemic) [compound 282, trans-2-((6-(5-((((3,3-difluorobutyl)(methyl)carbamoyl)oxy)methyl)-1-methyl-1H-1,2,3-triazol-4-yl)-2-methylpyridin-3-yl)ethynyl)cyclopentane-1-carboxylic acid]										half-life (male, SD, iv, 1 mg/kg): 6.07 h; half-life (male, SD, po, 1 mg/kg): 4.58 h; AUC(0-t) (male, SD rats, Iv, 1 mg/kg): 1200 to 3000 ng·h/mL; Cmax (male, SD rats, Iv, 1 mg/kg): 800 to 5000 ng/mL; AUC(0-t) (male, SD rats, Po, 1 mg/kg): 1200 to 3000 ng·h/mL; Cmax (male, SD rats, Po, 1 mg/kg): 200 to 800 ng/mL
CCC[C@H](C)OC(=O)Nc1c(-c2ccc(C#CC3(CC(=O)O)CC3)c(C)n2)nnn1C [010-B]							5000 to 10000 ng·h/mL	800 to 5000 ng/mL	8.56 h	AUC(0-t) (in vivo, SD rats, Po, 3 mg/kg): 10000 to 20000 ng·h/mL; Cmax (in vivo, SD rats, Po, 3 mg/kg): 800 to 5000 ng/mL; half-life (in vivo, po, 3 mg/kg, SD rats): 6.85 h
